Data as given in patent publication US10660910B2, “Use of sedoheptulose for prevention or treatment of inflammation” (C7 SUGAR GMBH, priority 2013, dated 2020).

Columns and labels:
[1] = biological target: T1, recombinant sedoheptulose kinase (CARKL) (Homo sapiens, UniProt Q9UHJ6); test: Sedoheptulose kinase assay (ADP Quest, ADP formation); format: biochemical; conditions: constant amount of recombinant CARKL, constant ATP (150 μM), increased doses of sedoheptulose, FIG. 4A
T1 construct: made in house; host or cells: E. coli
T1 sequence (Q9UHJ6 1-478): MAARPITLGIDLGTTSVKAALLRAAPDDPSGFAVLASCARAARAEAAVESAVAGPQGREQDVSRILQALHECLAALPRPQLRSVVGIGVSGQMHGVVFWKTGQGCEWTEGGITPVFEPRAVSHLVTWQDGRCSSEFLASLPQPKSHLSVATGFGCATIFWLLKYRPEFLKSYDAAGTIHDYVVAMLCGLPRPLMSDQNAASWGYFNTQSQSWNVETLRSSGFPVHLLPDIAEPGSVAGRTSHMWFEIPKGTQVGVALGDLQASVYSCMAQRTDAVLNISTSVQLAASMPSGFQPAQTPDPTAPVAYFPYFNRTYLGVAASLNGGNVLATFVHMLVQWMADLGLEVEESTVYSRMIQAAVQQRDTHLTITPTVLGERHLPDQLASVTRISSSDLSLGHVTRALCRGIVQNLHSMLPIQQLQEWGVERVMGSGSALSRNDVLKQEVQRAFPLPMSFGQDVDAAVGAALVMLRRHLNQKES
Description: FIG. 4: In an in vitro kinase assay, which employs ADP formation as activity readout, the sedoheptulose turnover rate at constant ATP (150 μM) concentration was enhanced either by (A) increasing sedoheptulose concentration or (B) by increasing the amount of the rate-limiting enzyme sedoheptulose kinase (CARKL). (C-E) Hepatocytes from wilt-type (WT) and sedoheptulose kinase CARKL overexpressing mice were pre-cultured for two days in GFS containing media before basal (C) ECAR and (D) OCR was recorded of these cells. (E) Hepatocytes from both genetic lineages (CARKL and WT controls) were cultivated in GF or GFS containing media and then pre-starved (no-carbohydrates) for 1 h to measure glucose-induced ECAR after the addition of glucose to reach a final concentration of 1 g/L in the culture media mean+/−S.D., n=7-11). As metabolic in vivo indicators (F) the respiratory quotient (RQ) and (G) energy expenditure (EE, kcal/day/kg^0.75) per activity by indirect calorimetry were determined and compared CARKL to wild-type (WT) littermates during day (8 am to 4 pm) and night (8 pm to 4 am). Data represent mean values, n=3, +/−SD. […] Blood glucose was measured before the injection (control) and 15, 30, 45 and 60 minutes after injection and graphed as relative value in % of control. […]

primary human adipocytes [2] = test: Human adipocyte culture in GF or GFS media, gene expression by RT-PCR; format: cell-based
Description: (§1) Stromal vascular fraction cells (SVFs) from subcutaneous white adipose tissue of a patient undergoing abdominal surgery were isolated as described before (Lindroos et al, Cell Metab. (2013), July 2; 18(1):62-74.). Briefly, adipose tissue was digested with Collagenase II (Worthington) and filtered. SVFs were separated from mature adipocytes by centrifugation, followed by the lysis of erythrocytes in the SVF-fraction (Buffer EL, Qiagen). The purified SVFs were cultured in DMEM/F12, 10% FBS (Gibco, Life Technologies). As soon as the cells reached confluence, they were washed with DMEM/F12 w/o glucose (Biowest) and the medium was replaced by DMEM/F12 with a total carbohydrate load of 3 g/L, containing 1.5 g/L glucose and fructose or 1 g/L each of glucose, fructose, and sedoheptulose, respectively. Two days after confluence (day 0), differentiation was induced by adding 1 μM dexamethasone, 1.74 μM insulin, 5 μM troglitazone, 0.5 μM IBMX, 17 μM pantothenic acid and 33 μM biotin. After two days, IBMX and dexamethasone were omitted, while insulin and troglitazone were removed on day 4. 50% of the medium was replaced on day 6. Two days later, the cells were harvested for RNA isolation (RNeasy mini kit, Qiagen).
(§2) Briefly, total RNA was extracted and reverse-transcribed using commercial kits (QIAGEN, Applied Biosystems). Quantitative real-time PCRs were performed on an AbiPRISM 7900HT real-time cycler using iTaq SYBR Green Supermix with ROX (BioRad) to measure CARKL, adiponectin, UCP-1, TNFa, IL-6, MCP-1, and beta-actin expression as previously described (Haschemi et al., Cell Metab. 15 (2012), 813-826). Expression of target gene was normalized to beta-actin expression. Relative expression of target gene was calculated by the delta-delta CT method.

mature murine adipocytes = test: Mature murine adipocytes ceiling culture, cytokine mRNA by RT-PCR; format: cell-based, mouse; conditions: three days in GFS vs GF media
Description: Anterior and posterior subcutaneous adipose tissue and epididymal white adipose tissue was isolated from transgenic CARKL-mice and wild-type littermate controls. Adipose tissue was digested as described above for the human sample. After centrifugation, the layer of floating mature adipocytes was removed and re-centrifuged at 100 rcf for 10 minutes. 150 μL, of packed adipocytes were cultured under a floating coverslip in six-well plates, in DMEM/F12, 15% calf serum (PAA). 24 hours after isolation, the wells were washed twice with PBS and the medium was exchanged to DMEM/F12 with a total carbohydrate load of 3 g/L, containing 1.5 g/L glucose and fructose, or 1 g/L each of glucose, fructose and sedoheptulose, respectively. Three days later, the cells were harvested for RNA isolation using TRIreagent (Sigma).
as §2

primary human adipocytes [3] = test: Extracellular acidification and oxygen consumption rates (XF-Analyzer) in human adipocytes; format: cell-based; conditions: adipocytes differentiated and cultured in sedoheptulose containing media vs controls
Description: as §1, with “Two days after confluence (day 0), differentiation was induced by adding 1 μM dexamethasone, 1.74 μM insulin, 5 μM troglitazone, 0.5 μM IBMX, 17 μM pantothenic acid and 33 μM biotin. After two days, IBMX and dexamethasone were omitted, while insulin and troglitazone were removed on day 4. 50% of the medium was replaced on day 6. Two days later, the cells were harvested for RNA isolation (RNeasy mini kit, Qiagen).” left out
The XF-Analyzer (Seahorse Bio.) was used to measure changes in cellular metabolism induced by different carbohydrates. Extracellular acidification rates (ECAR, mpH/min) and oxygen consumption rates (OCR, pmoles/min) were recorded in primary human adipocytes and primary murine hepatocytes according to the manufacture instructions. […] Changes induced by the different carbohydrate sources were expressed as relative change in % to illustrate the effect of each carbon source.

O=C(CO)[C@@H](O)[C@H](O)[C@H](O)[C@H](O)CO [sedoheptulose, Sedoheptulose]
sedoheptulose turnover rates as measured by ADP formation [1]: enhanced
sedoheptulose kinase CARKL mRNA expression (primary human adipocytes [2]; GFS media (1 g/L each glucose, fructose, sedoheptulose) vs GF (1.5 g/L each), eight days differentiation, FIG. 3A): increase
adiponectin expression (primary human adipocytes [2]; GFS vs GF treated cells, eight days, FIG. 3B): increase
UCP-1 expression (primary human adipocytes [2]; GFS vs GF treated cells, eight days, FIG. 3C): increase
TNFa mRNA (mature murine adipocytes; FIG. 3F): less
IL-6 mRNA (mature murine adipocytes; FIG. 3G): less
cellular oxygen consumption rates (OCR) (primary human adipocytes [3]; FIG. 3D): increased
extracellular acidification rates (ECAR) (primary human adipocytes [3]; FIG. 3E): comparable
